# Assay results published in paper PMC6773697, “Antileukemic activity of novel adenosine derivatives” (Scientific Reports, 2019).
# How the values were obtained:
# Assay type in all cases: cell-based, human
# dCK in MOLT-4 cells = test: Deoxycytidine kinase activity, MOLT-4; conditions: MOLT-4, 24 h incubation
# Description: Deoxycytidine kinase activity was measured in accordance with the manufacturer’s protocol. The cells, at final concentration were plated at 1 × 10^6 cells per 24-well plates and cultured with the tested compounds for 24 h. Some cells were preincubated with an ATR kinase inhibitor (VE-821) for 1 h at 37 °C before adding the tested compounds. After drug treatment, the cells were washed with PBS and resuspended in an ice-cold cytosol extraction buffer containing 1 mM phenylmethylsulfonyl fluoride (PMSF) and a protease inhibitor cocktail. The cell lysate was centrifuged at 10,000 × g for 30 min at 4 °C. The protein concentration was determined using the Bradford method. The supernatant (cytosolic fraction) was collected and stored at −80 °C. The clarified cytoplasm extracts, dCK standards, and blank control were added to the appropriate microtiter plate wells with a biotin-conjugated polyclonal antibody prepared specifically for dCK. Avidin conjugated to horseradish peroxidase (HRP) was added to each microplate well and incubated. Then, a TMB substrate solution was added to the plate. […] The enzyme-substrate reaction was terminated by addition of a sulfuric acid solution. The color change was measured spectrophotometrically at a wavelength of 450 nm using a microplate reader (BioTek).
# MOLT-4 cells = test: Comet assay with proteinase K post-treatment (DNA-protein cross-links), MOLT-4; conditions: MOLT-4, 24 h
# Description: Single cell gel electrophoresis (comet assay) was used to detect alkali labile sites, single and double DNA strand breaks, and cross-links induced by genotoxic agents. After electrophoresis and gel staining with 4,6-diamidino-2-phenylindole (DAPI), the released DNA was visible under a fluorescence microscope as a characteristic comet tail. The cells were plated on 24-well plates (20,000 cells/mL) and treated with CLA, CLA-FMOR, CLA-FPIP, or CLA-FPIR at the indicated concentrations for 2, 24, and 48 h at 37 °C. Some cells were preincubated with an ATR kinase inhibitor (VE-821) for 1 h at 37 °C before adding the tested compounds. Next, cells were collected into Eppendorf tubes and rinsed with PBS. Then, cells were suspended in 0.75% low melting point (LMP) agarose dissolved in PBS (pH 7.4) and placed on microscope slides precoated with 0.5% normal melting point (NMP) agarose. […] The slides were stored in a wet chamber at 4 °C and analyzed under a fluorescence microscope. Fifty randomly selected cells from each slide were measured using image analysis (Nikon, Japan) attached to a COHU 4910 video camera, which was equipped with a UV-1 filter block consisting of an excitation filter (359 nm) and a barrier filter (461 nm) connected to the image analysis system Lucia-Comet v. […] In the samples preincubated with VE-821, the level of DNA damage associated with the ATR kinase was determined. […]
# γH2AX in HL-60 cells = test: H2AX (phospho S139) In-Cell ELISA, HL-60; conditions: HL-60, 48 h, versus control cells
# Description: The level H2AX protein phosphorylated Ser139 was measured in tested leukemia cells by using of In-Cell ELISA, ICE assay kit. The cells were seeded on 96-well plates (100 × 10^3/well) and 48 h later, incubated with the appropriate compounds. In some experimental variants, cells were preincubated for 1 h with VE-821 (10 µM). The cells were fixed by adding a final concentration of 4% paraformaldehyde solution (10 min, room temperature). After 2 h of Block Solution incubation, cells were treated with a highly specific antibody. A rabbit monoclonal antibody specific to H2AX (phospho S139) was used (at 1:100, 2 h incubation). Next Secondary Antibody Solution (at 1:1000) were added to the cells. The measurements were obtained on a fluorescence plate reader at an excitation wavelength of 680 nm and emission at 694 nm. The cells were PBS washed and 100 µL of Janus Green Stain was added to each well of the plate (5 min., room temperature). The data were collected at excitation wavelength of 750 nm and emission at 800 nm channel (Fluoroskan Cary Eclipse). Antibody signal intensity was normalized to the total amount using Janus Green cell-stain.
smiles,measurement,setting,value
"OC[C@H]1O[C@@H](n2cnc3c(N=CN4CCOCC4)nc(Cl)nc32)C[C@@H]1O [CLA-FMOR, [6-deamino-6-(N′, N′-3′-oxa-1′, 5′-pentamethyleneformamidine)] cladribine]",dCK activity,dCK in MOLT-4 cells,highest dCK activity
same,percentage of DNA in the comet tail after proteinase K,MOLT-4 cells,increase in the percentage of DNA in the comet tail
same,increase in γH2AX level,γH2AX in HL-60 cells,~ 2.4 fold
